In the supplement of paper PMC10307832:

What was measured:
Assay in all cases: relative viability (nuclei count vs DMSO), 5 days (fraction); higher = more cells survive
AGI-6780 + Olaparib = compound: O=C(Nc1cccc(C(F)(F)F)c1)Nc1cc(S(=O)(=O)NC2CC2)ccc1-c1ccsc1 [AGI-6780] + O=C(c1cc(Cc2n[nH]c(=O)c3ccccc23)ccc1F)N1CCN(C(=O)C2CC2)CC1 [Olaparib] (partner 8 µM)
Summary of the method: (§1)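 Lung cancer cell lines were pin-tool dosed in 1536-well plates on the day after seeding, with either a lone drug or a fixed anchor-drug dose plus five library-drug doses (not always all listed) in √10 steps. Nuclei were counted on 4× images after 5 days. Relative viability is the ratio of treated-well to vehicle-well nuclei counts, with each value a median of duplicate plates.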

AGI-6780 + Bortezomib = compound: O=C(Nc1cccc(C(F)(F)F)c1)Nc1cc(S(=O)(=O)NC2CC2)ccc1-c1ccsc1 [AGI-6780] + CC(C)C[C@H](NC(=O)[C@H](Cc1ccccc1)NC(=O)c1cnccn1)B(O)O [Bortezomib] (partner 0.002 µM)
Summary of the method: as §1

AGI-6780 + Pemetrexed = compound: O=C(Nc1cccc(C(F)(F)F)c1)Nc1cc(S(=O)(=O)NC2CC2)ccc1-c1ccsc1 [AGI-6780] + Nc1nc2[nH]cc(CCc3ccc(C(=O)N[C@@H](CCC(=O)O)C(=O)O)cc3)c2c(=O)[nH]1 [Pemetrexed] (partner 0.2 µM)
Summary of the method: as §1

AGI-6780 + Alpelisib = compound: O=C(Nc1cccc(C(F)(F)F)c1)Nc1cc(S(=O)(=O)NC2CC2)ccc1-c1ccsc1 [AGI-6780] + Cc1nc(NC(=O)N2CCC[C@H]2C(N)=O)sc1-c1ccnc(C(C)(C)C(F)(F)F)c1 [Alpelisib] (partner 2 µM)
Summary of the method: as §1

Row | Cell Line | relative viability (AGI-6780 + Olaparib; first compound 0.08 µM) | relative viability (AGI-6780 + Olaparib; first compound 0.253 µM) | relative viability (AGI-6780 + Olaparib; first compound 0.8 µM) | relative viability (AGI-6780 + Olaparib; first compound 2.53 µM) | relative viability (AGI-6780 + Olaparib; first compound 8 µM) | relative viability (AGI-6780 + Bortezomib; first compound 0.08 µM) | relative viability (AGI-6780 + Bortezomib; first compound 0.253 µM) | relative viability (AGI-6780 + Bortezomib; first compound 0.8 µM) | relative viability (AGI-6780 + Bortezomib; first compound 2.53 µM) | relative viability (AGI-6780 + Bortezomib; first compound 8 µM) | relative viability (AGI-6780 + Pemetrexed; first compound 0.08 µM) | relative viability (AGI-6780 + Pemetrexed; first compound 0.253 µM) | relative viability (AGI-6780 + Pemetrexed; first compound 0.8 µM) | relative viability (AGI-6780 + Pemetrexed; first compound 2.53 µM) | relative viability (AGI-6780 + Pemetrexed; first compound 8 µM) | relative viability (AGI-6780 + Alpelisib; first compound 0.08 µM) | relative viability (AGI-6780 + Alpelisib; first compound 0.253 µM) | relative viability (AGI-6780 + Alpelisib; first compound 0.8 µM) | relative viability (AGI-6780 + Alpelisib; first compound 2.53 µM) | relative viability (AGI-6780 + Alpelisib; first compound 8 µM)
1 | 201T | 0.869 | 0.837 | 0.84 | 0.871 | 0.775 | 1.11 | 0.981 | 1.02 | 1.1 | 1.1 | 0.34 | 0.325 | 0.345 | 0.31 | 0.291 | 1.11 | 1.05 | 0.991 | 0.941 | 1.01
2 | A549 | 0.32 | 0.298 | 0.337 | 0.302 | 0.377 | – | – | – | – | – | – | – | – | – | – | 0.797 | 0.662 | 0.76 | 0.593 | 0.747
3 | A-427 | – | 0.712 | 0.738 | 0.649 | 0.732 | 1.13 | 1.02 | 1.06 | 0.917 | 0.991 | – | 0.932 | 1.01 | 0.929 | 0.971 | 1.06 | 1.02 | 1.09 | 0.902 | 1.06
4 | ABC-1 | – | 0.965 | 0.888 | 0.779 | 0.792 | 0.295 | 0.35 | 0.335 | 0.262 | 0.378 | – | – | – | – | – | 1.14 | 0.918 | 1.08 | 0.829 | 1.24
5 | BEN | 1.02 | 1.02 | 1.22 | – | 0.961 | 0.657 | 0.813 | 0.852 | – | 0.754 | 0.644 | 0.876 | 0.718 | – | 0.965 | 1.04 | 0.966 | 1.36 | – | 0.914
6 | CAL-12T | 0.712 | 0.662 | 0.648 | 0.667 | 0.78 | – | 1.05 | 0.944 | 1.31 | 1.06 | 1.25 | 1.27 | 1.35 | 1.25 | 1.26 | 1.33 | 1.15 | 1.29 | 1.23 | 1.13
7 | COR-L23 | 0.349 | 0.385 | 0.274 | 0.32 | 0.387 | 1.05 | 0.96 | 0.814 | 0.935 | 0.851 | 0.213 | 0.215 | 0.206 | 0.207 | 0.188 | 0.757 | 0.688 | 0.67 | 0.747 | 0.699
8 | COR-L 105 | 0.632 | 0.466 | 0.707 | 0.66 | 0.541 | 0.886 | 0.896 | 0.993 | 0.766 | 0.813 | 1.26 | 0.965 | 1.17 | 0.923 | 1.08 | 1.19 | 1.02 | 0.986 | 0.863 | 1.04
9 | Calu-6 | 0.598 | 0.601 | 0.584 | 0.559 | 0.543 | 1.12 | 0.976 | 1.02 | 1.12 | 0.972 | – | – | – | – | – | 1.01 | 0.977 | 0.97 | 0.945 | 1.04
10 | ChaGo-K-1 | 0.437 | 0.457 | 0.377 | 0.411 | 0.422 | 0.772 | 1.02 | 1.08 | 1.01 | 0.932 | 0.26 | 0.267 | 0.261 | 0.255 | 0.25 | – | – | – | – | –
11 | EBC-1 | 0.788 | 0.789 | 0.664 | 0.655 | 0.747 | 0.781 | 0.566 | 0.485 | 0.601 | 0.529 | – | – | – | – | – | 0.965 | 0.923 | 0.798 | 0.783 | 0.841
12 | EKVX | 0.894 | 0.811 | 0.935 | 0.763 | 0.863 | 1.12 | 1.07 | 1.05 | 0.697 | 0.958 | 0.381 | 0.403 | 0.342 | 0.388 | 0.4 | 0.96 | 0.839 | 0.995 | 0.755 | 0.898
13 | EMC-BAC-2 | – | 0.477 | 0.409 | 0.45 | 0.53 | 1.14 | 1.03 | 1.1 | 0.856 | 1.14 | – | 0.434 | 0.43 | 0.55 | 0.44 | 0.797 | 0.73 | 0.756 | 0.67 | 0.778
14 | EPLC-272H | 0.748 | 0.827 | 0.633 | 0.732 | 0.942 | 0.905 | 1.03 | 0.901 | 0.766 | 1.03 | 0.302 | 0.4 | 0.27 | 0.398 | 0.272 | 0.88 | 0.972 | 0.927 | 0.785 | 0.864
15 | H3255 | 0.505 | 0.526 | 0.607 | 0.566 | 0.632 | 0.572 | 0.739 | 0.836 | 0.69 | 0.865 | 0.554 | 0.549 | 0.636 | 0.629 | 0.581 | 0.687 | 0.62 | 0.728 | 0.468 | 0.754
16 | HARA | 0.847 | 0.945 | 0.311 | 0.893 | 0.83 | 1.24 | 1.09 | 0.948 | 1.19 | 1.16 | 0.248 | 0.266 | 0.199 | 0.271 | 0.239 | 0.925 | 0.834 | 0.585 | 0.801 | 0.974
17 | HCC-15 | 0.724 | 0.808 | 0.703 | 0.657 | 0.76 | 1.1 | 0.993 | 1.06 | 1.04 | 1.02 | 0.227 | 0.245 | 0.204 | 0.215 | 0.207 | 0.883 | 0.91 | 0.939 | 0.712 | 0.919
18 | HCC-44 | 1.03 | 0.989 | 0.98 | 0.979 | 1.02 | 0.927 | 0.887 | 0.884 | 0.843 | 0.928 | 0.657 | 0.681 | 0.601 | 0.631 | 0.616 | 0.874 | 0.755 | 0.826 | 0.626 | 0.817
